Here are results for nine compounds from patent US20250145608A1, “KRAS DEGRADING COMPOUNDS COMPRISING ANNULATED 2-AMINO-3-CYANO THIOPHENES” (Boehringer Ingelheim Int'l GmbH Corp., priority 2021, published 2025).

Read-outs that look alike come from different tables or passages of the source. Bounds are passed on as bounds.

Common to all, as to type: cell-based
Assay [1] concerns NCI-H358 cells. Briefly: NCI-H358 CTG proliferation assay (120 h) (NSCLC, G12C). The settings on record: Homo sapiens. The gist of the method:
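IC50 values derive from four-parameter nonlinear regression of CellTiter-Glo viability (RLU relative to DMSO wells) after 120 h of exposure. Cells were plated in RPMI-1640 + 10% FCS at 2000 per well (assay 1) or 200 per well (assay 2). Untreated cells were measured at compound addition as T0.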

Assay [2] has as its system LOVO cells. Briefly: LOVO CTG proliferation assay (120 h) (CRC, G13D). The following applies: Homo sapiens. The procedure: LOVO CTG Proliferation Assay (120 h) (CRC, G13D)
(§1) LOVO cells (ATCC CCL-229) are dispensed into 384-well plates, flat and clear bottom (Greiner, PNr. 781091) at a density of 1000 cells per well in 60 μL DMEM (Sigma D6429)+10% Fetal Calf Serum (HyClone, PNr.: SH30084.03) and incubated at 37° C. in a CO2 incubator overnight. The next day, compounds (10 mM stock in DMSO) are added with the ECHO acoustic liquid handler system (Beckman Coulter), including DMSO controls. Plates are incubated for 120 h, and cell viability is measured using CellTiter-Glo luminescent cell viability reagent (Promega product code G7570). Viability (stated as percent of control) is defined as relative luminescence units RLU of each well divided by the RLU of cells in DMSO controls. IC50 values are determined from viability measurements by non-linear regression using a four-parameter model.

The test system of assay [3] is A375 cells. Briefly: A375 CTG proliferation assay (120 h) (melanoma, wt, B-Raf mutant, negative control). The following applies: Homo sapiens, A-375, negative control cell line. The procedure: A375 CTG Proliferation Assay (120 h) (Melanoma, Wt, B-Raf Mutant, Negative Control)
as §1, with “A375” for “LOVO”, “CRL-1619)” for “CCL-229)”, “300” for “1000”, “at logarithmic dose series using” for “with”, “HP Digital Dispenser D300 (Tecan),” for “ECHO acoustic liquid handler system (Beckman Coulter),”

Assay [4] concerns the target T1, KRAS4B G13D (Homo sapiens, UniProt P01116, G13D).
T1 construct: HiBit; expressed in transfected cells; host or cells: GP5d cells (ECACC 95090715), stably transduced with lentivirus, CMV promoter
In words: HiBit KRAS4B mutant spectrum degradation assay, KRAS4B G13D in GP5d cells (18 h). The following applies: KRAS mutation G13D. The text has this: (§2) The therapeutically relevant mutant KRAS constructs (WT, G12C, G12D, G12V, G13D) were obtained by site directed mutagenesis using a KRAS4B WT cDNA construct as a template. GP5d cells (ECACC Cat. No. 95090715) were transduced with lentiviral vectors expressing mutant KRAS4B cDNA under control of a CMV promoter. Stably transduced cells were selected using a neomycin selectable marker encoded on the construct.
(§3) To assess PROTAC-mediated degradation of various KRAS mutants, GP5d cells stably transduced with KRAS4B constructs as described above were seeded at 25000 cells per well in 100 μL Dulbecco's Modified Eagle medium (Sigma cat. no. D6429) supplemented with 10% fetal calf serum into white bottom opaque 96 well plates (Perkin Elmer cat no. 5680). Plates were incubated at 37° C., 5% CO2 in a humidified incubator over night to allow the cells to adhere. […] Plates were further incubated at 37° C. for 18 hours. Following incubation, 100 μL per well Promega Nano-Glo HiBit lytic detection reagent mix (Promega Nano-Glo HiBit Lytic Detection System #N3050), prepared according to the manufacturer's instructions in the kit, were added. To allow for adequate cell lysis, plates were incubated on an orbital shaker for 15 min and further incubated 30 min at room temperature. Upon completion of cell lysis, luminescence was measured using an Envision plate reader using the Ultrasensitive Luminescence Protocol for 96 well plates. Luminescence levels were normalized by the values obtained with DMSO-treated samples and plotted as percent of DMSO control. DC50 values were computed using a four parametric logistic model and are reported in nM in Table 65 for representative example (Ex.) compounds of the invention. Dmax values represent the maximal extent of degradation observed and is stated as percent of control (% Ctrl.) treatments in Table 66 for representative example (Ex.) compounds of the invention.
In general terms: HiBiT is a short tag that completes a luciferase, so light tracks the accessible tagged protein.

The subject of assay [5] is GP2D cells. In words: GP2D proliferation assay (120 h) (colorectal cancer, G12D). The procedure:
GP2D Proliferation Assay (120 h) (Colorectal Cancer, G12D)
GP2D cells (ATCC No. CRL-5807) are dispensed into white 384-well plates, flat and white bottom (Perkin Elmer, 6007680) at a density of 500 cells per well in 40 μl DMEM (Sigma, D6429)+1× GlutaMAX (Gibco, 35050038)+10% FCS (fetal calf serum). […] Compounds (10 mM stock in DMSO) are added at logarithmic dose series using the HP Digital Dispenser D300 (Tecan), including DMSO controls and normalizing for added DMSO. For the TO time point measurement, untreated cells are analyzed at the time of compound addition. Plates are incubated for 120 h, and cell viability is measured using CellTiter-Glo luminescent cell viability reagent (Promega product code G7570). Viability (stated as percent of control) is defined as relative luminescence units RLU of each well divided by the RLU of cells in DMSO controls. IC50 values are determined from viability measurements by non-linear regression using a four parameter model.

The target in assay [6] is T2, KRAS4B WT (Homo sapiens, UniProt P01116).
T2 construct: HiBit; expressed in transfected cells; host or cells: GP5d cells (ECACC 95090715), stably transduced with lentivirus, CMV promoter
Briefly: HiBit KRAS4B mutant spectrum degradation assay, KRAS4B WT in GP5d cells (18 h). The settings on record: KRAS mutation G12WT.
From the text: as §2, §3

The mark [7] stands for this setting: assay 1, read-out: H358 (assay 1) IC50.
[8] abbreviates: assay 2, read-out: H358 (assay 2) IC50.

T2 sequence (P01116 1-188 isoform P01116-2): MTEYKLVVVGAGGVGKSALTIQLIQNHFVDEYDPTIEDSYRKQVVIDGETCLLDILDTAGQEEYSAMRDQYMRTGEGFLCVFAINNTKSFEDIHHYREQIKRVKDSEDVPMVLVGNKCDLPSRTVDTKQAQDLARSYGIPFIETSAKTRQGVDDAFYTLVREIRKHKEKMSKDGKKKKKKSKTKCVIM
T1 sequence (P01116 1-188 isoform P01116-2 G13D): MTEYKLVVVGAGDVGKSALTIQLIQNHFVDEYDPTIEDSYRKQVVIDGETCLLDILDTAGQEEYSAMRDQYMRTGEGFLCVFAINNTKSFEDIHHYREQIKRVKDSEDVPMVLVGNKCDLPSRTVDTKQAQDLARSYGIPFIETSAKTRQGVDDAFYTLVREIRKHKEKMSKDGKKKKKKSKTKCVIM

Take `Cc1ncsc1-c1ccc(CNC(=O)[C@@H]2C[C@@H](O)CN2C(=O)C(c2cc(OCCCCN3CCCN(c4nccc(-c5cc([C@@]6(C)CCCc7sc(N)c(C#N)c76)on5)n4)[C@@H](C)C3)no2)C(C)C)cc1` (stereo partly drawn) [I-4]: the figures for the IC50 in assay [1] (setting [7]), in assay [1] (setting [8]) and in assay [2] were 445 nM, 196 nM and 425 nM, respectively.
For `Cc1ncsc1-c1ccc([C@H](CO)NC(=O)[C@@H]2C[C@@H](O)CN2C(=O)[C@H](C(C)C)n2cc(OCCCC(C)N3CCCN(c4nccc(-c5noc([C@@]6(C)CCCc7sc(N)c(C#N)c76)n5)n4)[C@@H](C)C3)nn2)cc1` (stereo partly drawn) [I-30], the IC50 is at least 3000 nM in assay [3], 6.4 nM in assay [5], 29.3 nM in assay [1] (setting [7]) and 86.4 nM in assay [2]. The DC50 in assay [4] is 1 nM; in assay [6], 0.4 nM. Further, the “Dmax at 18 h” value is recorded as 91.9 % Ctrl in assay [4] and 97.8 % Ctrl in assay [6].
As for `Cc1ncsc1-c1ccc([C@H](CO)NC(=O)[C@@H]2C[C@@H](O)CN2C(=O)[C@H](C(C)C)n2cc(OC(C)CCCN3CCCN(c4nccc(-c5noc([C@@]6(C)CCCc7sc(N)c(C#N)c76)n5)n4)[C@@H](C)C3)nn2)cc1` (stereo partly drawn) [I-31], the IC50 in assay [3] was at least 3000 nM; in assay [5], 26.1 nM; in assay [1] (setting [7]) it was 159 nM; in assay [2] it was 344 nM. Moreover, the DC50 in assay [4] turned out to be 2.7 nM; in assay [6] it was 1.7 nM. Besides, the figures for the “Dmax at 18 h” value in assay [4] and in assay [6] were 89.7 % Ctrl and 97.5 % Ctrl, respectively.
As to `Cc1ncsc1-c1ccc([C@H](C)NC(=O)[C@@H]2C[C@@H](O)CN2C(=O)C(C(C)C)n2cc(OCCCCN3CCCN(c4nccc(-c5noc([C@@]6(C)CCCc7sc(N)c(C#N)c76)n5)n4)[C@@H](C)C3)nn2)cc1` (stereo partly drawn) [I-28], the IC50 in assay [3] turned out to be 1090 nM; in assay [5], 2.9 nM; in assay [1] (setting [7]) it was 32 nM; in assay [1] (setting [8]), 81.4 nM; in assay [2] it was 649 nM.
In the same order, the values of `CC(C)C(C(=O)N1C[C@H](O)C[C@H]1C(=O)NCc1ccc(C#N)cc1)c1cc(OCCCCN2CCCN(c3nccc(-c4noc([C@@]5(C)CCCc6sc(N)c(C#N)c65)n4)n3)[C@@H](C)C2)no1` (stereo partly drawn) [I-16] are at least 3000 nM, 33.3 nM, 231 nM, 85.5 nM and 1820 nM.
For `Cc1ncsc1-c1ccc([C@H](CCO)NC(=O)[C@@H]2C[C@@H](O)CN2C(=O)[C@H](C(C)C)n2cc(OCCCCN3CCCN(c4nccc(-c5noc([C@@]6(C)CCCc7sc(N)c(C#N)c76)n5)n4)[C@@H](C)C3)nn2)cc1` [I-38], the IC50 is at least 3000 nM in assay [3], 12.6 nM in assay [5], 98.8 nM in assay [1] (setting [7]) and 597 nM in assay [2].
`Cc1ncsc1-c1ccc(CNC(=O)[C@@H]2C[C@@H](O)CN2C(=O)[C@H](c2cc(OCCCN3CCCN(c4nccc(-c5noc([C@@]6(C)CCCc7sc(N)c(C#N)c76)n5)n4)[C@@H](C)C3)no2)C(C)C)cc1` (single isomer, unassigned) [I-24]: the IC50 in assay [1] (setting [7]) was 1070 nM; in assay [1] (setting [8]), 1440 nM; in assay [2] it was 1950 nM.
In the case of `Cc1ncsc1-c1ccc(CNC(=O)[C@@H]2C[C@@H](O)CN2C(=O)[C@@H](c2cc(OCCCN3CCCN(c4nccc(-c5noc([C@@]6(C)CCCc7sc(N)c(C#N)c76)n5)n4)[C@@H](C)C3)no2)C(C)C)cc1` (single isomer, unassigned) [I-25], the figures for the DC50 in assay [4] and in assay [6] were 2.5 nM and 0.8 nM, respectively. Moreover, the “Dmax at 18 h” value is 94 % Ctrl in assay [4] and 96 % Ctrl in assay [6]. Besides, the IC50 in assay [1] (setting [7]) is 45.6 nM; in assay [1] (setting [8]), 63.9 nM; in assay [2] it was 53.5 nM.
On to `Cc1ncsc1-c1ccc([C@@H](NC(=O)[C@@H]2C[C@@H](O)CN2C(=O)[C@H](C(C)C)n2cc(OCCCCN3CCCN(c4nccc(-c5noc([C@@]6(C)CCCc7sc(N)c(C#N)c76)n5)n4)[C@@H](C)C3)nn2)[C@H](O)C(C)C)cc1` (single isomer, unassigned) [I-45], for which the IC50 is at least 3000 nM in assay [3]; 9.4 nM in assay [5]; 98.6 nM in assay [1] (setting [7]); 13.4 nM in assay [1] (setting [8]); 43 nM in assay [2].

As a reminder, the IC50 is the concentration that gives 50% inhibition. In general, DC50 refers to the concentration giving 50% degradation.
